Assay results taken from the supplement of paper PMC12317010.
Counter-ions that a name gives are not always drawn.

Assay: collision cross section in nitrogen (drift tube, single-field); higher = larger gas-phase ion size
[1] = ion source: APCI, ion mode: Positive, ion type: [M]+ (permanent cation)
[2] = ion source: ESI, ion mode: Positive, ion type: [M]+ (permanent cation)
[3] = ion type: [M-H], ion source: ESI, ion mode: Negative
[4] = ion type: [M+H], ion source: APCI, ion mode: Positive
[5] = ion type: [M+H], ion source: ESI, ion mode: Positive
[6] = ion type: [M+Na], ion source: ESI, ion mode: Positive
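Note: chemical standards at 10 µM analysed by drift tube IMS-QTOF MS in about 3.95 torr nitrogen, mean of duplicate injections differing ≤1%, mass error below 10 ppm.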

| SMILES | collision cross section in nitrogen [3] [Å²] | collision cross section in nitrogen [4] [Å²] | collision cross section in nitrogen [5] [Å²] | collision cross section in nitrogen [6] [Å²] | also measured |
| --- | --- | --- | --- | --- | --- |
| CCCCCCCCCCCCCCCC[n+]1ccccc1 [Cetylpyridinium bromide] | – | – | – | – | collision cross section in nitrogen [1]: 193.4 Å²; collision cross section in nitrogen [2]: 194.3 Å² |
| CCCCCCCCCCCCCCCC[n+]1ccccc1 [Cetylpyridinium chloride] | – | – | – | – | collision cross section in nitrogen [1]: 193.3 Å²; collision cross section in nitrogen [2]: 193.7 Å² |
| C=C(C)C(=O)Nc1ccc(Cl)c(Cl)c1 [Chloranocryl] | 145.8 | – | – | – | – |
| CON(C)C(=O)Nc1ccc(Br)c(Cl)c1 [Chlorbromuron] | 152.8 | – | – | – | – |
| Cc1cc(Cl)ccc1N=CN(C)C [Chlordimeform hydrochloride] | – | 146.2 | – | – | – |
| Cc1cc(Cl)ccc1N=CN(C)C [Chlordimeform] | – | 145.6 | 146.4 | – | – |
| O=C(O)C1C(C(=O)O)C2(Cl)C(Cl)=C(Cl)C1(Cl)C2(Cl)Cl (stereo unspecified) [Chlorendic acid] | 159 | – | – | – | – |
| CCOP(=O)(OCC)OC(=CCl)c1ccc(Cl)cc1Cl [Chlorfenvinphos] | – | 168.7 | 170.1 | 181 | – |
| O=C(NC(=O)c1c(F)cccc1F)Nc1cc(Cl)c(Oc2ncc(C(F)(F)F)cc2Cl)c(Cl)c1 [Chlorfluazuron] | 224.4 | – | 221.8 | 225.6 | – |
| N=C(NCCCCCCNC(=N)NC(=N)Nc1ccc(Cl)cc1)NC(=N)Nc1ccc(Cl)cc1 [Chlorhexidine diacetate] | 233.6 | 222.8 | 224.1 | 228.3 | – |
| N=C(NCCCCCCNC(=N)NC(=N)Nc1ccc(Cl)cc1)NC(=N)Nc1ccc(Cl)cc1 [Chlorhexidine dihydrochloride] | 233.2 | 222.7 | 222.9 | 227.5 | – |
| N=C(NCCCCCCNC(=N)NC(=N)Nc1ccc(Cl)cc1)NC(=N)Nc1ccc(Cl)cc1 [Chlorhexidine] | – | 222.9 | 222.4 | 226.5 | – |
| Nc1cnn(-c2ccccc2)c(=O)c1Cl [Chloridazon] | 143.7 | 143.6 | 144 | 158 | – |
| CN1C(=O)CCS(=O)(=O)C1c1ccc(Cl)cc1 (stereo unspecified) [Chlormezanone] | 154.1 | – | – | – | – |
| O=C1c2ccccc2C(=O)C1C(=O)C(c1ccccc1)c1ccc(Cl)cc1 (stereo unspecified) [Chlorophacinone] | 193.2 | – | – | – | – |
| CN(C)C(=O)Nc1ccc(Oc2ccc(Cl)cc2)cc1 [Chloroxuron] | – | 175.3 | 174.9 | 183.1 | – |
| CN(C)CCC(c1ccc(Cl)cc1)c1ccccn1 (stereo unspecified) [Chlorpheniramine maleate] | – | 164 | 164.6 | – | – |
| CN(C)CCCN1c2ccccc2Sc2ccc(Cl)cc21 [Chlorpromazine hydrochloride] | – | 170.8 | 171.2 | – | – |
| CC(C)OC(=O)Nc1cccc(Cl)c1 [Chlorpropham] | 148.4 | – | – | – | – |
| CCOP(=O)(OCC)Oc1nc(Cl)c(Cl)cc1Cl [Chlorpyrifos oxon] | – | 162.3 | 162.7 | 171 | – |
| NC(=S)c1c(Cl)cccc1Cl [Chlorthiamid] | 135.9 | – | – | – | – |
| C[N+](C)(C)CCO [Choline hydroxide] | – | – | – | – | collision cross section in nitrogen [2]: 117.7 Å² |
| O=c1cc(-c2ccccc2)oc2cc(O)cc(O)c12 [Chrysin] | 157.7 | 155.4 | 154.8 | – | – |
| Cc1ccccc1CO[C@@H]1C[C@@]2(C(C)C)CC[C@]1(C)O2 [Cinmethylin] | – | – | – | 169.7 | – |
| CCOCCOC(=O)C=Cc1ccc(OC)cc1 [Cinoxate] | – | – | – | 155.6 | – |
